Tests used:
Assay in all cases: relative viability (nuclei count vs DMSO), 5 days (fraction); higher = more cells survive
A-427 = system: A-427
Procedure, shortened: (§1)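 Nuclei were stained with Hoechst during a one-step fixation (final 0.05% Triton X-100, 1% formaldehyde, 1 ug/ml Hoechst) carried out 5 days after dosing, then counted on 4× images. The cells, lung cancer lines in 1536-well plates, had been dosed by pin tool the day after seeding with one drug alone or a fixed anchor-drug dose plus five library-drug doses (not always all listed) in √10 steps. Relative viability is the nuclei count in treated wells divided by that in vehicle wells, and each value is the median of duplicate plates.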

BEN = system: BEN
Procedure, shortened: as §1

COR-L23 = system: COR-L23
Procedure, shortened: as §1

EKVX = system: EKVX
Procedure, shortened: as §1

HARA = system: HARA
Procedure, shortened: as §1

LC-2-ad = system: LC-2-ad
Procedure, shortened: as §1

LCLC-103H = system: LCLC-103H
Procedure, shortened: as §1

LOU-NH91 = system: LOU-NH91
Procedure, shortened: as §1

LU99A = system: LU99A
Procedure, shortened: as §1

NCI-H1650 = system: NCI-H1650
Procedure, shortened: as §1

NCI-H1666 = system: NCI-H1666
Procedure, shortened: as §1

NCI-H1793 = system: NCI-H1793
Procedure, shortened: as §1

NCI-H1915 = system: NCI-H1915
Procedure, shortened: as §1

NCI-H1944 = system: NCI-H1944
Procedure, shortened: as §1

NCI-H2087 = system: NCI-H2087
Procedure, shortened: as §1

NCI-H2170 = system: NCI-H2170
Procedure, shortened: as §1

NCI-H2228 = system: NCI-H2228
Procedure, shortened: as §1

NCI-H3122 = system: NCI-H3122
Procedure, shortened: as §1

NCI-H322M = system: NCI-H322M
Procedure, shortened: as §1

NCI-H520 = system: NCI-H520
Procedure, shortened: as §1

NCI-H727 = system: NCI-H727
Procedure, shortened: as §1

PC-14 = system: PC-14
Procedure, shortened: as §1

PC-3 [JPC-3] = system: PC-3 [JPC-3]
Procedure, shortened: as §1

SK-LU-1 = system: SK-LU-1
Procedure, shortened: as §1

Structure (SMILES): Oc1nc(-c2ccc(C(F)(F)F)cc2)nc2c1CSCC2 [XAV939] + CC(=O)Nc1cccc(-n2c(=O)n(C3CC3)c(=O)c3c(Nc4ccc(I)cc4F)n(C)c(=O)c(C)c32)c1 [Trametinib] (partner 0.02 µM)
- relative viability (A-427; first compound 0.08 µM): 0.818
- relative viability (A-427; first compound 0.253 µM): 0.737
- relative viability (A-427; first compound 0.8 µM): 0.781
- relative viability (A-427; first compound 2.53 µM): 0.658
- relative viability (BEN; first compound 0.08 µM): 1.07
- relative viability (BEN; first compound 0.253 µM): 1.01
- relative viability (BEN; first compound 0.8 µM): 1.19
- relative viability (BEN; first compound 2.53 µM): 0.88
- relative viability (COR-L23; first compound 0.08 µM): 0.651
- relative viability (COR-L23; first compound 0.253 µM): 0.597
- relative viability (COR-L23; first compound 0.8 µM): 0.543
- relative viability (COR-L23; first compound 2.53 µM): 0.531
- relative viability (EKVX; first compound 0.08 µM): 0.346
- relative viability (EKVX; first compound 0.253 µM): 0.317
- relative viability (EKVX; first compound 0.8 µM): 0.311
- relative viability (EKVX; first compound 2.53 µM): 0.245
- relative viability (HARA; first compound 0.08 µM): 0.925
- relative viability (HARA; first compound 0.253 µM): 0.531
- relative viability (HARA; first compound 0.8 µM): 0.892
- relative viability (HARA; first compound 2.53 µM): 0.506
- relative viability (LC-2-ad; first compound 0.08 µM): 0.932
- relative viability (LC-2-ad; first compound 0.253 µM): 0.899
- relative viability (LC-2-ad; first compound 0.8 µM): 0.922
- relative viability (LC-2-ad; first compound 2.53 µM): 0.79
- relative viability (LCLC-103H; first compound 0.08 µM): 0.704
- relative viability (LCLC-103H; first compound 0.253 µM): 0.641
- relative viability (LCLC-103H; first compound 0.8 µM): 0.672
- relative viability (LCLC-103H; first compound 2.53 µM): 0.676
- relative viability (LOU-NH91; first compound 0.08 µM): 0.811
- relative viability (LOU-NH91; first compound 0.253 µM): 0.769
- relative viability (LOU-NH91; first compound 0.8 µM): 0.745
- relative viability (LOU-NH91; first compound 2.53 µM): 0.742
- relative viability (LU99A; first compound 0.08 µM): 0.678
- relative viability (LU99A; first compound 0.253 µM): 0.521
- relative viability (LU99A; first compound 0.8 µM): 0.524
- relative viability (LU99A; first compound 2.53 µM): 0.542
- relative viability (NCI-H1650; first compound 0.08 µM): 0.568
- relative viability (NCI-H1650; first compound 0.253 µM): 0.511
- relative viability (NCI-H1650; first compound 0.8 µM): 0.591
- relative viability (NCI-H1650; first compound 2.53 µM): 0.303
- relative viability (NCI-H1666; first compound 0.08 µM): 1
- relative viability (NCI-H1666; first compound 0.253 µM): 0.834
- relative viability (NCI-H1666; first compound 0.8 µM): 0.754
- relative viability (NCI-H1666; first compound 2.53 µM): 0.871
- relative viability (NCI-H1793; first compound 0.08 µM): 0.576
- relative viability (NCI-H1793; first compound 0.253 µM): 0.381
- relative viability (NCI-H1793; first compound 0.8 µM): 0.381
- relative viability (NCI-H1793; first compound 2.53 µM): 0.353
- relative viability (NCI-H1915; first compound 0.08 µM): 0.359
- relative viability (NCI-H1915; first compound 0.253 µM): 0.296
- relative viability (NCI-H1915; first compound 0.8 µM): 0.276
- relative viability (NCI-H1915; first compound 2.53 µM): 0.294
- relative viability (NCI-H1944; first compound 0.08 µM): 0.418
- relative viability (NCI-H1944; first compound 0.253 µM): 0.388
- relative viability (NCI-H1944; first compound 0.8 µM): 0.412
- relative viability (NCI-H1944; first compound 2.53 µM): 0.292
- relative viability (NCI-H2087; first compound 0.08 µM): 0.198
- relative viability (NCI-H2087; first compound 0.253 µM): 0.168
- relative viability (NCI-H2087; first compound 0.8 µM): 0.215
- relative viability (NCI-H2087; first compound 2.53 µM): 0.147
- relative viability (NCI-H2170; first compound 0.08 µM): 0.882
- relative viability (NCI-H2170; first compound 0.253 µM): 0.833
- relative viability (NCI-H2170; first compound 0.8 µM): 0.822
- relative viability (NCI-H2170; first compound 2.53 µM): 0.72
- relative viability (NCI-H2228; first compound 0.08 µM): 0.429
- relative viability (NCI-H2228; first compound 0.253 µM): 0.488
- relative viability (NCI-H2228; first compound 0.8 µM): 0.541
- relative viability (NCI-H2228; first compound 2.53 µM): 0.571
- relative viability (NCI-H3122; first compound 0.08 µM): 0.257
- relative viability (NCI-H3122; first compound 0.253 µM): 0.211
- relative viability (NCI-H3122; first compound 0.8 µM): 0.237
- relative viability (NCI-H3122; first compound 2.53 µM): 0.196
- relative viability (NCI-H322M; first compound 0.08 µM): 0.601
- relative viability (NCI-H322M; first compound 0.253 µM): 0.526
- relative viability (NCI-H322M; first compound 0.8 µM): 0.555
- relative viability (NCI-H322M; first compound 2.53 µM): 0.48
- relative viability (NCI-H520; first compound 0.08 µM): 0.687
- relative viability (NCI-H520; first compound 0.8 µM): 0.501
- relative viability (NCI-H520; first compound 2.53 µM): 0.427
- relative viability (NCI-H727; first compound 0.08 µM): 0.361
- relative viability (NCI-H727; first compound 0.8 µM): 0.398
- relative viability (NCI-H727; first compound 2.53 µM): 0.403
- relative viability (PC-14; first compound 0.08 µM): 0.833
- relative viability (PC-14; first compound 0.253 µM): 0.707
- relative viability (PC-14; first compound 0.8 µM): 0.671
- relative viability (PC-14; first compound 2.53 µM): 0.597
- relative viability (PC-3 [JPC-3]; first compound 0.253 µM): 0.613
- relative viability (PC-3 [JPC-3]; first compound 0.8 µM): 0.722
- relative viability (PC-3 [JPC-3]; first compound 2.53 µM): 0.677
- relative viability (SK-LU-1; first compound 0.08 µM): 0.537
- relative viability (SK-LU-1; first compound 0.253 µM): 0.44
- relative viability (SK-LU-1; first compound 0.8 µM): 0.543
- relative viability (SK-LU-1; first compound 2.53 µM): 0.582

Reference: the supplement of paper PMC10307832
